Data on one molecule can be found in patent US20090093470A1, “PHOTODYNAMIC THERAPY PROCESS AND PHOTOSENSITIZER COMPOSITIONS THEREFOR” (Ondine International, Ltd., priority 2007, published 2009).

This experiment concerns E. Coli (ATCC 25922). Briefly: Photodynamic disinfection kill models (planktonic culture and biofilm). Format: cell-based. The note with it: 670 nm laser illumination for 60 seconds. The method, then:
A 0.01% (v/v) aqueous solution of methylene blue was reduced substantially entirely to the reduced state using ascorbic acid. […] The formulation was then tested for antibacterial efficacy against E. Coli (ATCC® 25922™) using two established photodynamic disinfection kill models (planktonic culture and biofilm) with a 670 nm laser energy source to provide desired illumination for 60 seconds. […] FIG. 2 is a bar graph showing the eradication of E. coli expressed in log^10 reduction in bacterial counts for the various samples used in the experiment. […]

For `O=C1O[C@H]([C@@H](O)CO)C(O)=C1O` [ascorbic acid], the “reduction in bacterial counts (viable count) of E. coli” value is given as “did not itself demonstrate any antibacterial effects”.
